According to patent US4112097A, “Antihypertensive agents” (Abbott Laboratories, priority 1977, dated 1978):
Counter-ions that a name gives are not always drawn. Like-named read-outs stand apart in the source and are kept apart here.

Tests used:
mice (male and female) = test: Acute intravenous toxicity in mice; format: in vivo, mouse; conditions: mice, administered within twenty minutes following preparation
[1] = Acute intravenous toxicity in mice; format: in vivo, mouse; conditions: mouse, in vivo, iv, mice male and female, read-out: LD50 (95% Confidence Limits)
[2] = test system: spontaneously hypertensive (SH) rats; test: Antihypertensive effect (blood pressure and heart rate) in spontaneously hypertensive rats; format: in vivo, rat; conditions: for Percent Change BP (blood pressure) / Percent Change HR (heart rate): N=4, mean
Description: The screening is conducted as follows:
Male spontaneously hypertensive (SH) rats are trained to be restrained in a wire mesh cylinder in a warming box, at least two training cycles being conducted before testing. The rats are warmed for about 1/2 hour period to blood pressure measurement, the warming box being maintained at a constant temperature of 36° C.
An occluding cuff attached to the programed sphymomanometer is placed near the base of the tail of each rat and the pressure in the cuff is increased automatically from 0 to 250 milimeters of mercury (mm Hg) at a rate of 10 mm Hg per second. The total time for each cycle of inflation and deflation of the cuff is 50 seconds and the interval between cycles is one minute.
A photocell is placed distal to the cuff to record the pulses due to forward motion of blood flow with each heart beat. As the pressure in the cuff increases, the pulse disappears completely at a point where cuff pressure equals or exceeds the arterial blood pressure and it reappears during deflation at approximately the same pressure. Five interference free signals for deflation are recorded for each rat. Rats with a blood pressure of 180 mm Hg or more during the control period are used in the study. Blood pressure and heart rate readings are recorded on a model VII Grass polygraph at intervals of 1, 3, 5 and 24 hours after administration of the drug.

physchem = conditions: water
Description: The water in the filtrate was removed in vacuo and the residue weighed and found to be 16.7 mg.

[3] = background statement on prazosin; cited from earlier work
[4] = cited from earlier work
[5] = intraperitoneal 0.3 mg/kg, 1 hour
[6] = intraperitoneal 0.3 mg/kg, 3 hours
[7] = intraperitoneal 0.3 mg/kg, 5 hours
[8] = intraperitoneal 0.3 mg/kg, 24 hours
[9] = intraperitoneal 1 mg/kg, 1 hour
[10] = intraperitoneal 1 mg/kg, 3 hours
[11] = intraperitoneal 1 mg/kg, 5 hours
[12] = intraperitoneal 1 mg/kg, 24 hours
[13] = intraperitoneal 3 mg/kg, 1 hour
[14] = intraperitoneal 3 mg/kg, 3 hours
[15] = intraperitoneal 3 mg/kg, 5 hours
[16] = intraperitoneal 3 mg/kg, 24 hours
[17] = intraperitoneal 10 mg/kg, 1 hour
[18] = intraperitoneal 10 mg/kg, 3 hours
[19] = intraperitoneal 10 mg/kg, 5 hours
[20] = intraperitoneal 10 mg/kg, 24 hours
[21] = intraperitoneal 30 mg/kg, 1 hour
[22] = intraperitoneal 30 mg/kg, 3 hours
[23] = intraperitoneal 30 mg/kg, 5 hours
[24] = intraperitoneal 30 mg/kg, 24 hours

COc1cc2nc(N3CCN(C(=O)C4CCCO4)CC3)nc(N)c2cc1OC (stereo not shown) [2[4-(Tetrahydro-2-Furoyl)Piperazinyl]-4-Amino-6,7-Dimethoxyquinazoline Hydrochloride]
toxicity in comparison to the compound of Formula I (mice (male and female)): significantly lower toxicity than the compound of Formula I
LD50 ([1]; injected 24 hours after formulation (B)): 253 mg/kg
LD50 ([1]; injected immediately after formulation (A)): 259 mg/kg
duration of the effect (decrease in blood pressure) ([2]; intraperitoneal 30 mg./kg.): greater than 24 hours
fall in blood pressure ([2]; oral, 3 and 10 mg./kg., up to approximately): ≤ 40%
solubility (physchem): 590 mg/mL

COc1cc2nc(N3CCN(C(=O)c4ccco4)CC3)nc(N)c2cc1OC [Formula I, 2-[4-(2-furoyl)-1-piperazine-1-yl]-4-amino-6,7-dimethoxyquinazoline, reference compound]
solubility in words [3]: very low solubility
fall in blood pressure in words ([4]; The Lancet, May 10, 1975): profound fall in blood pressure
toxicity in words ([4]; The Lancet, May 10, 1975): significant toxicity
collapse with loss of consciousness ([4]; following use of the drug, The Lancet and British Medical Journal, June 28, 1975): Sudden collapse with loss of consciousness for periods ranging from a few minutes to one hour
Percent Change BP (blood pressure) [2, 5]: -20.8%
Percent Change HR (heart rate) [2, 5]: -2.5%
Percent Change BP (blood pressure) [2, 6]: -18.3%
Percent Change HR (heart rate) [2, 6]: -0.5%
Percent Change BP (blood pressure) [2, 7]: -13.8%
Percent Change HR (heart rate) [2, 7]: -12.0%
Percent Change BP (blood pressure) [2, 8]: -4.3%
Percent Change HR (heart rate) [2, 8]: -5.0%
Percent Change BP (blood pressure) [2, 9]: -20.0%
Percent Change HR (heart rate) [2, 9]: 2.8%
Percent Change BP (blood pressure) [2, 10]: -15.3%
Percent Change HR (heart rate) [2, 10]: 1.8%
Percent Change BP (blood pressure) [2, 11]: -13.5%
Percent Change HR (heart rate) [2, 11]: 10.5%
Percent Change BP (blood pressure) [2, 12]: 3.5%
Percent Change HR (heart rate) [2, 12]: 12.8%
Percent Change BP (blood pressure) [2, 13]: -45.0%
Percent Change HR (heart rate) [2, 13]: 0.3%
Percent Change BP (blood pressure) [2, 14]: -31.5%
Percent Change HR (heart rate) [2, 14]: -6.5%
Percent Change BP (blood pressure) [2, 15]: -26.3%
Percent Change HR (heart rate) [2, 15]: -17.0%
Percent Change BP (blood pressure) [2, 16]: -2.3%
Percent Change HR (heart rate) [2, 16]: -4.0%
Percent Change BP (blood pressure) [2, 17]: -41.0%
Percent Change HR (heart rate) [2, 17]: 5.8%
Percent Change BP (blood pressure) [2, 18]: -34.0%
Percent Change HR (heart rate) [2, 18]: 14.8%
Percent Change BP (blood pressure) [2, 19]: -27.0%
Percent Change HR (heart rate) [2, 19]: 7.3%
Percent Change BP (blood pressure) [2, 20]: -13.0%
Percent Change HR (heart rate) [2, 20]: -7.5%
Percent Change BP (blood pressure) [2, 21]: -43.3%
Percent Change HR (heart rate) [2, 21]: -1.8%
Percent Change BP (blood pressure) [2, 22]: -48.5%
Percent Change HR (heart rate) [2, 22]: 4.8%
Percent Change BP (blood pressure) [2, 23]: -55.5%
Percent Change HR (heart rate) [2, 23]: 3.5%
Percent Change BP (blood pressure) [2, 24]: -24.5%
Percent Change HR (heart rate) [2, 24]: -6.5%
Percent Change BP (blood pressure) ([2]; oral 0.03 mg/kg, 1 hour): -4.5%
Percent Change HR (heart rate) ([2]; oral 0.03 mg/kg, 1 hour): 4.8%
Percent Change BP (blood pressure) ([2]; oral 0.03 mg/kg, 3 hours): -0.8%
Percent Change HR (heart rate) ([2]; oral 0.03 mg/kg, 3 hours): -9.3%
Percent Change BP (blood pressure) ([2]; oral 0.03 mg/kg, 5 hours): -11.5%
Percent Change HR (heart rate) ([2]; oral 0.03 mg/kg, 5 hours): -9.8%
Percent Change BP (blood pressure) ([2]; oral 0.03 mg/kg, 24 hours): 1.3%
Percent Change HR (heart rate) ([2]; oral 0.03 mg/kg, 24 hours): -2.0%
Percent Change BP (blood pressure) ([2]; oral 0.1 mg/kg, 1 hour): -9.8%
Percent Change HR (heart rate) ([2]; oral 0.1 mg/kg, 1 hour): 13.5%
Percent Change BP (blood pressure) ([2]; oral 0.1 mg/kg, 3 hours): -17.5%
Percent Change HR (heart rate) ([2]; oral 0.1 mg/kg, 3 hours): 18.3%
Percent Change BP (blood pressure) ([2]; oral 0.1 mg/kg, 5 hours): -22.8%
Percent Change HR (heart rate) ([2]; oral 0.1 mg/kg, 5 hours): 1.5%
Percent Change BP (blood pressure) ([2]; oral 0.1 mg/kg, 24 hours): -1.3%
Percent Change HR (heart rate) ([2]; oral 0.1 mg/kg, 24 hours): 3.5%
Percent Change BP (blood pressure) ([2]; oral 0.3 mg/kg, 1 hour): -32.8%
Percent Change HR (heart rate) ([2]; oral 0.3 mg/kg, 1 hour): -5.5%
Percent Change BP (blood pressure) ([2]; oral 0.3 mg/kg, 3 hours): -33.8%
Percent Change HR (heart rate) ([2]; oral 0.3 mg/kg, 3 hours): -5.0%
Percent Change BP (blood pressure) ([2]; oral 0.3 mg/kg, 5 hours): -30.0%
Percent Change HR (heart rate) ([2]; oral 0.3 mg/kg, 5 hours): -13.8%
Percent Change BP (blood pressure) ([2]; oral 0.3 mg/kg, 24 hours): -12.3%
Percent Change HR (heart rate) ([2]; oral 0.3 mg/kg, 24 hours): 3.0%
Percent Change BP (blood pressure) ([2]; oral 1 mg/kg, 1 hour): -31.8%
Percent Change HR (heart rate) ([2]; oral 1 mg/kg, 1 hour): 2.0%
Percent Change BP (blood pressure) ([2]; oral 1 mg/kg, 3 hours): -17.8%
Percent Change HR (heart rate) ([2]; oral 1 mg/kg, 3 hours): 6.8%
Percent Change BP (blood pressure) ([2]; oral 1 mg/kg, 5 hours): -19.5%
Percent Change HR (heart rate) ([2]; oral 1 mg/kg, 5 hours): -1.0%
Percent Change BP (blood pressure) ([2]; oral 1 mg/kg, 24 hours): -2.3%
Percent Change HR (heart rate) ([2]; oral 1 mg/kg, 24 hours): 10.0%
Percent Change BP (blood pressure) ([2]; oral 3 mg/kg, 1 hour): -19.3%
Percent Change HR (heart rate) ([2]; oral 3 mg/kg, 1 hour): 0.5%
Percent Change BP (blood pressure) ([2]; oral 3 mg/kg, 3 hours): -19.8%
Percent Change HR (heart rate) ([2]; oral 3 mg/kg, 3 hours): 11.5%
Percent Change BP (blood pressure) ([2]; oral 3 mg/kg, 5 hours): -20.5%
Percent Change HR (heart rate) ([2]; oral 3 mg/kg, 5 hours): 1.5%
Percent Change BP (blood pressure) ([2]; oral 3 mg/kg, 24 hours): 5.3%
Percent Change HR (heart rate) ([2]; oral 3 mg/kg, 24 hours): 6.0%
Percent Change BP (blood pressure) ([2]; oral 10 mg/kg, 1 hour): -23.8%
Percent Change HR (heart rate) ([2]; oral 10 mg/kg, 1 hour): 3.0%
Percent Change BP (blood pressure) ([2]; oral 10 mg/kg, 3 hours): -22.3%
Percent Change HR (heart rate) ([2]; oral 10 mg/kg, 3 hours): 12.3%
Percent Change BP (blood pressure) ([2]; oral 10 mg/kg, 5 hours): -22.0%
Percent Change HR (heart rate) ([2]; oral 10 mg/kg, 5 hours): -0.8%
Percent Change BP (blood pressure) ([2]; oral 10 mg/kg, 24 hours): -2.3%
Percent Change HR (heart rate) ([2]; oral 10 mg/kg, 24 hours): 23.3%
Percent Change BP (blood pressure) ([2]; oral 30 mg/kg, 1 hour): -34.0%
Percent Change HR (heart rate) ([2]; oral 30 mg/kg, 1 hour): -3.8%
Percent Change BP (blood pressure) ([2]; oral 30 mg/kg, 3 hours): -31.3%
Percent Change HR (heart rate) ([2]; oral 30 mg/kg, 3 hours): -11.5%
Percent Change BP (blood pressure) ([2]; oral 30 mg/kg, 5 hours): -29.3%
Percent Change HR (heart rate) ([2]; oral 30 mg/kg, 5 hours): -14.8%
Percent Change BP (blood pressure) ([2]; oral 30 mg/kg, 24 hours): -14.5%
Percent Change HR (heart rate) ([2]; oral 30 mg/kg, 24 hours): -1.5%
